From US7691969B2, “Isolated GRP94 ligand binding domain polypeptide and nucleic acid encoding same, crystalline form of same, and screening methods employing same” (Duke University, priority 2001, dated 2010)

Legend:
GRP94 [1] = target: T1, GRP94 (Sus scrofa, UniProt Q29092); experiment: Fluorophore binding to native and heat shocked GRP94 (fluorescence emission); set-up: species or system porcine; settings: for fluorophore binding to native versus heat shocked GRP94 (fluorescence emission): 0.5 μM GRP94, 5 μM probe, 37° C.
T1 construct: GRP94 was purified from porcine pancreas rough microsomes; from tissue; host or cells: porcine pancreas rough microsomes (lumenal contents)
Source text: Fluorophore Binding Reactions.
Fluorescence Measurements. […] All spectra were background corrected.
To characterize the structural basis for the heat shock dependent activation of GRP94 activity, the interaction of polarity-sensitive fluorophores with native and heat shocked GRP94 was examined. The three probes tested, Prodan (6-propionyl-2-(dimethylamino)naphthalene), 8-ANS (1,8-anilinonaphthalenesulfonate) and bis-ANS (bis(1,8-anilino-naphthalenesulfonate) are structurally related probes that bind to hydrophobic sites on proteins and undergo substantial fluorescence spectrum changes upon introduction into nonpolar environments, as discussed by Rosen & Weber (1969) Biochemistry 8:3915-3920; Weber & Farris (1979) Biochemistry 18:3075-3078; Takashi et al. (1977) Proc Natl Acad Sci USA 74:2334-2338; Shi et al. (1994) Biochemistry 33:7536-7546. The following experimental protocol was utilized. GRP94 was warmed to 37° C. and either maintained at 37° C. or heat shocked for 15 minutes at 50° C., followed by incubation at 37° C. Subsequently, probe stocks were added to the GRP94 stocks and emission spectra recorded after 30 min at 37° C.
Under the experimental conditions used in this series of experiments, bis-ANS binding to GRP94 was near maximal at a 20-fold molar excess of GRP94 monomer over bis-ANS, with half maximal binding observed at 110 nM GRP94 (FIG. 2B).

casein kinase II = casein kinase II (Homo sapiens, UniProt P68400); experiment: Casein kinase assay; type: biochemical; settings: 180 μM NECA or radicicol in 3.6% DMSO, 5 μg/ml heparin, 5 mM GTP; 4 μM casein
Method: (§1) Phosphorylation Assays. To assay for GRP94 autophosphorylation, 1 μM GRP94 was incubated with γ-[^32P]ATP (6000 cpm/pmol) (Amersham Pharmacia Biotech of Piscataway, N.J.), diluted with cold ATP to yield a final concentration of 0.15 mM ATP in a buffer containing 10 mM Mg(OAc)2 and 50 mM K-Hepes, pH 7.4. For the casein kinase assay, 1 unit of casein kinase II was incubated as described above, with the addition of 4 μM casein. […] The 25 μl reaction mixtures were incubated at 37° C. for 1 hour and quenched by addition of 10% trichloroacetic acid. Samples were analyzed by 10% SDS-PAGE gels and the phosphorylated species were quantitated using a Fuji MACBAS1000™ phosphorimaging system (Fuji Medical Systems of Stamford, Conn.).

GRP94 [2] = target: T1, GRP94; experiment: GRP94 autophosphorylation assay; type: biochemical, porcine; settings: 180 μM NECA or radicicol in 3.6% DMSO, 5 μg/ml heparin, 5 mM GTP
Method: as §1

GRP94 [3] = target: T1, GRP94; experiment: [3H]-NECA competitive displacement assay; type: binding, porcine; settings: for nucleoside base specificity: binding to GRP94 by [3H]-NECA displacement: competitors at 50 μM; for effect of excess Mg2+ on binding to GRP94: 10 mM Mg(OAc)2 versus nominal magnesium
Method: Where indicated, binding reactions were performed in either buffer C (10 mM Tris, pH 7.5, 50 mM KCl, 5 mM MgCl2, 2 mM DTT, 0.01% NP-40, 20 mM Na2MoO4) or 50 mM Tris, pH 7.5, 10 mM Mg(OAc)2. […] Vacuum filtration was performed with an Amersham Pharmacia Biotech (Piscataway, N.J.) vacuum filtration manifold.
All binding reactions were performed in triplicate and corrected by subtraction of background values, determined in binding reactions lacking GRP94.

HSP90 = HSP90 (Saccharomyces cerevisiae, UniProt P02829); settings: cited from earlier work
GRP94 [4] = target: T1, GRP94; experiment: Tryptophan fluorescence (tertiary conformational state); type: biochemical, porcine; settings: 50 μM NECA, 50 μM geldanamycin, 2.5 mM ATP or 2.5 mM ADP; 1 h 37° C.
Method: Tryptophan Fluorescence. Tryptophan fluorescence measurements were conducted in a FLUOROMAX™ spectrofluorometer (Spex Industries, Inc. of Edison, N.J.) with the slit widths set to 1 nm for both excitation and emission. […] All spectra were corrected by subtraction of buffer or buffer plus ligand samples. GRP94 (50 μg/ml) was incubated in buffer A supplemented with 10 mM Mg(OAc)2 and the following concentrations of ligands for 1 hour at 37° C. […] Samples were then cooled to room temperature, transferred to a quartz cuvette, and the spectra collected.

Chain of casein kinase II (P68400 whole entry): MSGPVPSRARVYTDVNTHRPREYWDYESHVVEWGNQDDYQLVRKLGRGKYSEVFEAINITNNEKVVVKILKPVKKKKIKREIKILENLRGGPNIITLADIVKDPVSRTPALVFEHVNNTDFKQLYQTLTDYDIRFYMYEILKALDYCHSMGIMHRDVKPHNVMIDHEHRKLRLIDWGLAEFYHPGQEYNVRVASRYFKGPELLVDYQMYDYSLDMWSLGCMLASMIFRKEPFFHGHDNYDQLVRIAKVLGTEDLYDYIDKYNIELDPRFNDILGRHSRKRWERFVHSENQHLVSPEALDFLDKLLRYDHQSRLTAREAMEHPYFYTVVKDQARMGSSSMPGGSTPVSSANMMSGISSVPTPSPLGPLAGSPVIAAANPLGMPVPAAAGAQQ
Chain of casein kinase II (P67870 whole entry partner): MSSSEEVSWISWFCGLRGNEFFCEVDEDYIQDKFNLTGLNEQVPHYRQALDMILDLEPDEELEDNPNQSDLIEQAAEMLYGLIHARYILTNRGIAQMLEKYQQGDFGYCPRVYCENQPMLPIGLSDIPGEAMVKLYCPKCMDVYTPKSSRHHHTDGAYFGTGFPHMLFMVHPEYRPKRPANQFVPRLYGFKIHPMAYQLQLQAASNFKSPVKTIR
T1 sequence (Q29092 22-804): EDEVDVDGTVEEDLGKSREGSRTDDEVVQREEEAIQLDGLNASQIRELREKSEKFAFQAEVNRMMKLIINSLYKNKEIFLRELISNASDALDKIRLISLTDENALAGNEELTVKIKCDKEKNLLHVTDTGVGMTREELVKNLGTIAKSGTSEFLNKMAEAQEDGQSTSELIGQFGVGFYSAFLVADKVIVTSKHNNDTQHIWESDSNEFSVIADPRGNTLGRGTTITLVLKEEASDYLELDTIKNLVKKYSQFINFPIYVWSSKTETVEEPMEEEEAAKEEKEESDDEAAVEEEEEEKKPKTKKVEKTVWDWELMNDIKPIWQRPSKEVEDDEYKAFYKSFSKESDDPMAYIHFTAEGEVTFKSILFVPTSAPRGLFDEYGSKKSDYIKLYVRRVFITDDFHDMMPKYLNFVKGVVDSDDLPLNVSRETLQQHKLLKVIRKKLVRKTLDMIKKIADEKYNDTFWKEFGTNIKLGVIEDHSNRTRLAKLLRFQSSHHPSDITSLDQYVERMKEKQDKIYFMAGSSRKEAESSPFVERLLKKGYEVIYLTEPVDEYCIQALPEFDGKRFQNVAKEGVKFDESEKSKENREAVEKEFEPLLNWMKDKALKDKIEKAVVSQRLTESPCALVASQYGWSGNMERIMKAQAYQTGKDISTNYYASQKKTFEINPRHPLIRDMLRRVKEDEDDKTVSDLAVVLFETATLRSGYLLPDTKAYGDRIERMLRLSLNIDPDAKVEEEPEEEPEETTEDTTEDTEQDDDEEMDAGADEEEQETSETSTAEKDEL
Chain of HSP90 (P02829 whole entry): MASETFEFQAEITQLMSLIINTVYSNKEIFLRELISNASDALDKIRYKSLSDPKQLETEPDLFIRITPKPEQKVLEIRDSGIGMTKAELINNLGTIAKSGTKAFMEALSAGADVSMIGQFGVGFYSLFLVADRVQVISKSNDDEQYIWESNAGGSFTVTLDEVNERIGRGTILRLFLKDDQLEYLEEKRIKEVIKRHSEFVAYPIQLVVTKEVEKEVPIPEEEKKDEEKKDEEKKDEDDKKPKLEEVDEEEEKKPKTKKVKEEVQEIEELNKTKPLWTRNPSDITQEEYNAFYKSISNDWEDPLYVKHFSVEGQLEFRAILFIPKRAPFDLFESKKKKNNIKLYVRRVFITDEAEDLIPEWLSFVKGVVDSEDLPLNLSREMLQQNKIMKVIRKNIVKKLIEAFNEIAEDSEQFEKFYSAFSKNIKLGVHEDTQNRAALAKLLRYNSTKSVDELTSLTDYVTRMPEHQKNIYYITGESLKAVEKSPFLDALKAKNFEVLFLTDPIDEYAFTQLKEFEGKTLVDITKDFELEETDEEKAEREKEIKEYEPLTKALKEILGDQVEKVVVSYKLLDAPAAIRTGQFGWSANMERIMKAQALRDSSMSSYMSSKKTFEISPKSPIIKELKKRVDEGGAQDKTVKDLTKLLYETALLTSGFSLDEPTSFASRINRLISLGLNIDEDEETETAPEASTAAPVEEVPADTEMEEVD

CCC(=O)c1ccc2cc(N(C)C)ccc2c1 [Prodan, 6-propionyl-2-(dimethylamino)naphthalene]
fluorophore binding to native versus heat shocked GRP94 (fluorescence emission) (GRP94 [1]): does not interact with the hydrophobic binding pocket(s) displayed by heat shocked GRP94

Nc1nc2c(ncn2[C@@H]2O[C@H](COP(=O)(O)OP(=O)(O)OP(=O)(O)O)[C@@H](O)[C@H]2O)c(=O)[nH]1 [GTP]
inhibition of casein kinase II activity (casein kinase II): markedly attenuated GRP94-derived and casein kinase II activity | inhibition of GRP94 autophosphorylation (GRP94-derived kinase) activity (GRP94 [2]): markedly attenuated GRP94-derived and casein kinase II activity | nucleoside base specificity: binding to GRP94 by [3H]-NECA displacement (GRP94 [3]): little to no binding

O=S(=O)(O)c1cccc2cccc(Nc3ccccc3)c12 [8-ANS, 1,8-anilinonaphthalenesulfonate]
agonist activity for GRP94 activation (GRP94 [1]): functions solely as an indicator and lacks agonist activity | fluorophore binding to native versus heat shocked GRP94 (fluorescence emission) (GRP94 [1]): displays weak interactions with native GRP94, yet binds avidly following heat shock

C[C@@H]1C[C@H]2O[C@@H]2/C=C\C=C\C(=O)Cc2c(Cl)c(O)cc(O)c2C(=O)O1 [radicicol]
inhibition of casein kinase II activity (casein kinase II): neither NECA nor radicicol, both of which bind to the N-terminal nucleotide binding domain of GRP94, significantly inhibit GRP94 derived or casein kinase II activity below the solvent background | binding stoichiometry to Hsp90 (HSP90; Roe et al. (1999)): 2 mol radicicol/mol Hsp90 dimer

Nc1ccn([C@@H]2O[C@H](COP(=O)(O)OP(=O)(O)OP(=O)(O)O)[C@@H](O)[C@H]2O)c(=O)n1 [CTP]
nucleoside base specificity: binding to GRP94 by [3H]-NECA displacement (GRP94 [3]): little to no binding

Nc1ncnc2c1ncn2[C@@H]1O[C@H](CO)[C@@H](O)[C@H]1O [adenosine]
relative displacement activity in [3H]-NECA competition (GRP94 [3]): relative displacement activity approximating that observed for ADP | effect of excess Mg2+ on binding to GRP94 (GRP94 [3]): without effect on the binding of NECA or adenosine to GRP94

Nc1ncnc2c1ncn2[C@@H]1O[C@H](COP(=O)(O)O)[C@@H](O)[C@H]1O [AMP]
effect of excess Mg2+ on binding to GRP94 (GRP94 [3]): markedly stimulated the binding of ATP, ADP and AMP

Nc1ncnc2c1ncn2[C@@H]1O[C@H](COP(=O)(O)OP(=O)(O)O)[C@@H](O)[C@H]1O [ADP]
change of GRP94 tryptophan fluorescence (GRP94 [4]): the tryptophan fluorescence was decreased | affinity of N-terminal domain of Hsp90, ADP relative to ATP (HSP90; Prodromou et al. (1997)): four-fold higher affinity than that observed for ATP | effect of excess Mg2+ on binding to GRP94 (GRP94 [3]): markedly stimulated the binding of ATP, ADP and AMP | relative affinities for GRP94 in presence of Mg2+ (GRP94 [3]; excess Mg2+): nearly identical relative affinities

O=c1ccn([C@@H]2O[C@H](COP(=O)(O)OP(=O)(O)OP(=O)(O)O)[C@@H](O)[C@H]2O)c(=O)[nH]1 [UTP]
nucleoside base specificity: binding to GRP94 by [3H]-NECA displacement (GRP94 [3]): little to no binding

Nc1ncnc2c1ncn2[C@H]1C[C@H](O)[C@@H](COP(=O)(O)OP(=O)(O)OP(=O)(O)O)O1 [deoxyATP]
nucleoside base specificity: binding to GRP94 by [3H]-NECA displacement (GRP94 [3]): GRP94 could bind both ATP and deoxyATP

Heparin
inhibition of casein kinase II activity (casein kinase II): markedly attenuated GRP94-derived and casein kinase II activity | inhibition of GRP94 autophosphorylation (GRP94-derived kinase) activity (GRP94 [2]): markedly attenuated GRP94-derived and casein kinase II activity
